# According to ChEMBL document CHEMBL2034954, “Synthesis and antimycobacterial activity of novel 1,3-dimethylisocyanurate derivatives” (Eur J Med Chem, 2012):
# Activity calls are given as the source filed them. No cut-off for these calls is given here.
# What was measured:
# [1] = tested on: Mycobacterium tuberculosis; test: Antitubercular activity against multidrug-resistant Mycobacterium tuberculosis clinical isolate at 10 ug/mL by radiometric growth assay; assay type: functional, organism-based
# [2] = tested on: Mycobacterium tuberculosis; test: Antitubercular activity against multidrug-resistant Mycobacterium tuberculosis clinical isolate assessed as number of colonies at 10 ug/mL by radiometric growth assay; assay type: functional
# [3] = tested on: Mycobacterium tuberculosis; test: Antitubercular activity against multidrug-resistant Mycobacterium tuberculosis clinical isolate assessed as number of colonies at 1 ug/mL by radiometric growth assay; assay type: functional
# [4] = tested on: Mycobacterium tuberculosis; test: Antitubercular activity against multidrug-resistant Mycobacterium tuberculosis clinical isolate at 40 ug/mL by radiometric growth assay; assay type: functional, organism-based
# [5] = tested on: Mycobacterium tuberculosis; test: Antitubercular activity against multidrug-resistant Mycobacterium tuberculosis clinical isolate at 80 ug/mL by radiometric growth assay; assay type: functional, organism-based
# [6] = tested on: Mycobacterium tuberculosis; test: Antitubercular activity against multidrug-resistant Mycobacterium tuberculosis clinical isolate at 1 ug/mL by radiometric growth assay; assay type: functional, organism-based
compound,measurement,setting,value
CC1COc2c(N3CCN(C)CC3)c(F)cc3c(=O)c(C(=O)O)cn1c23 (configuration not stated),Activity,[1],inactive
Cn1c(=O)n(C)c(=O)n(CCCCC[S+]([O-])CC(=O)NN)c1=O (configuration not stated),CFU,[2],10
same,CFU,[3],15
CO[C@H]1/C=C/O[C@@]2(C)Oc3c(C)c(O)c4c(O)c(c(/C=N/N5CCN(C)CC5)c(O)c4c3C2=O)NC(=O)/C(C)=C\C=C\[C@H](C)[C@H](O)[C@@H](C)[C@@H](O)[C@@H](C)[C@H](OC(C)=O)[C@@H]1C,Activity,[4],inactive
same,Activity,[5],inactive
NNC(=O)c1ccncc1 [ISONIAZID],Activity,[6],inactive
same,Activity,[1],inactive
